The record followed here is ChEMBL document CHEMBL1152169, “Synthesis and structure-activity relationships of selective norepinephrine reuptake inhibitors (sNRI) with improved pharmaceutical characteristics” (Bioorg Med Chem Lett, 2008).

Activity calls are given as the source filed them. No cut-off for these calls is given here.

The assay addresses Sodium-dependent dopamine transporter (Homo sapiens, UniProt Q01959). The assay can be described thus: Inhibition of dopamine uptake at human dopamine transporter.

For `CNC[C@@]1(O)Cc2ccccc2[C@H]1Oc1ccccc1C`, the result was inactive.
On to `Cc1ccccc1O[C@H]1c2ccccc2C[C@@]1(O)CN`, for which the outcome was inactive.
Next, `CNCC1(O)Cc2ccccc2C1Cc1ccccc1C` (racemic): “inactive”; `CNC[C@]1(O)Cc2ccccc2[C@@H]1Oc1cc(F)ccc1C`: “inactive”; `CNC[C@]1(O)Cc2ccccc2[C@@H]1Oc1ccccc1F`: “inactive”.
Regarding `CNC[C@]1(O)Cc2ccccc2[C@@H]1Oc1cccc(C)c1C`, the result was inactive.
In the case of `CNC[C@]1(O)Cc2ccccc2[C@@H]1Oc1ccccc1CO`, the outcome was inactive.
Next, `CCNCC1(O)Cc2ccccc2C1Oc1ccccc1C` (racemic): “inactive”.
Next, `CNC[C@]1(O)Cc2ccccc2[C@@H]1Oc1ccccc1SC`: “inactive”.
As for `CNC[C@]1(O)Cc2ccccc2[C@@H]1Oc1cccc(O)c1C`, the entry is “inactive”.
Regarding `CNCC1(O)Cc2ccccc2C1Sc1ccccc1C` (racemic), the result was inactive.
For the compound `Cc1ccccc1OC1c2ccccc2CC1(O)CN` (racemic), the result was inactive.
Next, `CNC[C@]1(O)Cc2ccccc2[C@@H]1Oc1ccc(O)cc1C`: “inactive”; `CNC[C@]1(OC)Cc2ccccc2[C@@H]1Oc1ccccc1C`: “inactive”.
As for `CNC[C@]1(O)Cc2ccccc2[C@@H]1Oc1ccc(C)cc1C`, the entry is “inactive”.
For the compound `CNC[C@]1(O)Cc2ccccc2[C@@H]1Oc1ccccc1Cl`, the result was inactive.
Next, `CNC[C@]1(O)Cc2ccccc2[C@@H]1Oc1ccccc1-c1cccc2ccccc12`: “inactive”.
`CCc1ccccc1O[C@H]1c2ccccc2C[C@@]1(O)CNC`: the result was inactive.
Next, `Cc1ccccc1OC1c2ccccc2CC1(O)CNCCO` (racemic): “inactive”; `CNC[C@]1(O)Cc2ccccc2[C@@H]1Oc1ccc(F)cc1C`: “inactive”.
As for `CNCC1(O)Cc2ccccc2C1Oc1ccccc1C` (racemic), the entry is “inactive”; as for `CNC[C@]1(O)Cc2ccccc2[C@@H]1Oc1c(C)cccc1F`, “inactive”.
`CNC[C@@H]1Cc2ccccc2[C@@H]1Oc1ccccc1C`: the outcome was inactive.
Next, `CNC[C@]1(O)Cc2ccccc2[C@@H]1Oc1ccccc1OC`: “inactive”; `CNC[C@]1(O)Cc2ccccc2[C@@H]1Oc1cccc(F)c1C`: “inactive”; `CNC[C@]1(O)Cc2ccccc2[C@@H]1Oc1ccccc1C`: “inactive”.
